Test results as given in patent US20240423946A1, “COMPOUND FOR TREATING NON-ALCOHOLIC FATTY LIVER DISEASE AND RELATED DISEASES” (Algiax Pharmaceuticals GmbH, priority 2021, published 2024).

Key:
Format in all cases: cell-based
HepG2 cells = assay: Palmitate-induced apoptosis, Caspase-Glo 3/7 activity in HepG2 cells; conditions: 24 h
Description: NAFLD is characterized by excessive hepatic fat accumulation which leads to cell death, including apoptosis, of liver cells in the progression of the disease. HepG2s (liver cell line) were seeded in a 96-well plate and cultured for 48 h before inducing cell death/apoptosis with 100 μM, 150 μM, 200 μM, 250 μM, 300 μM BSA-coupled palmitic acid (PA). A concentration-response curve to palmitate for apoptosis expressed as percentage of control of Caspase 3/7 (apoptosis marker) activity of HepG2 cells treated for 24 h were determined. As a positive control for apoptosis 2 μM staurosporine was used. Caspase 3/7 activity after 24 h was measured by a Caspase-Glo® 3/7 Assay (Promega) as described in the manufacturer's protocol. Luminescence was recorded after an incubation step of 35 min using the plate-reader luminometer of a Cytation™ 5.
HepG2 cells were treated with palmitate acid (200 μM) in the presence or absence of HK4 (100 nM) and GABA (100 μM), as well as with the vehicle BSA and the positive control for apoptosis staurosporine (STP) (2 μM) for 24 h. As a negative control an apoptosis inhibitor (API) (100 μM) was used. As described in Example I Caspase 3/7 activity after 24 h was measured by a Caspase-Glo® 3/7 Assay (Promega).

[1] = system: primary human hepatocytes; assay: Palmitate-induced apoptosis, caspase 3/7 activity in human primary hepatocytes; conditions: 24 h
Excerpt: Human primary hepatocytes were purchased from Thermo Fisher and cultured according to the manufacturer's instructions. […] To achieve finale palmitate concentrations, sodium palmitate was complexed with a preheated BSA (Carl Roth, Karlsruhe, Germany) solution at a 2.6:1 molar ratio.

NF-κB subunit p65 = assay: Western blot, phospho-NF-κB p65 to NF-κB p65 ratio in HepG2 cells
Description: Beside excessive hepatic fat accumulation, inflammation is one of the critical steps in the progression of NAFL to NASH. As an indicator of inflammation, phosphorylation of the transcription factor NF-κB was monitored by a phospho-p65 specific antibody using protein extraction and western blotting.
HepG2 cells were homogenized in lysis buffer including a protease and phosphatase inhibitor cocktail. Cell lysates were centrifuged at 12.000 rpm for 15 min. The protein concentrations were determined using the Pierce BCA protein assay kit (Thermo Fisher Scientific). 20 μg of Proteins were resolved on 4-20% gradient gels (Bio-Rad, Hercules, CA) and transferred onto an Immun-Blot PVDF membrane (Bio-Rad). Membranes were blocked with 5% non-fat dry milk or bovine serum albumin in TBPS containing 0.1% Tween for 1 h at RT, followed by an overnight incubation with the respective primary antibody: Phospho-NF-κB p65 and NF-κB p65 (Cell Signaling Technology, Frankfurt, Germany). Membranes were incubated with the corresponding HRP-coupled secondary antibody. Protein bands were visualized using an ECL Western blot detection substrate (Bio-Rad). The band intensities were quantified with the ChemStudio analysis software (Analytik Jena, Jena, Germany) and normalized by GAPDH band intensity.

Caspase 7 = assay: Human apoptosis array, Caspase 7 protein in lysates of treated HepG2 cells; conditions: HepG2, HK4 100 nM and PA
Description: Markers of apoptosis were analysed in the cell lysates of treated HepG2s with a human apoptosis array (RayBiotech, Peachtree Corners, GA) according to manufacturer's protocol. The total protein content was measured using the Pierce BCA protein assay kit (Thermo Fisher Scientific). Membranes were incubated with 250 μg of total protein from untreated and treated HepG2 cells. The spot intensities were quantified after an exposure of 500 ms using the ChemStudio analysis software (Analytik Jena) and normalized to the untreated control after background subtraction with the design spots for it.

SMILES: NCCCC(=O)O [GABA, gamma-Aminobutyric acid]
- PA-induced apoptosis rate (caspase 3/7 activity), with GABA (HepG2 cells; HepG2, GABA 100 μM + palmitate 200 μM): 764.9±16.72%

SMILES: CCCCCCCCCCCCCCCC(=O)O [Palmitate acid, palmitic acid, reference compound]
- Caspase 3/7 activity provoked by palmitate 100 μM ([1]; palmitate 100 μM alone): 147.3±31.3%
- Caspase 3/7 activity provoked by palmitate 200 μM ([1]; palmitate 200 μM alone): 155.1±3.78%
- Caspase 3/7 activity provoked by palmitate 200 μM (HepG2 cells; HepG2, palmitate 200 μM alone): 1130±103.3%
- Caspase 3/7 activity (apoptosis), percentage of control (HepG2 cells; HepG2, palmitate acid 100 μM alone): 342.2±12.25%

SMILES: Cc1cc(NC(=S)/C(C#N)=C(\O)C2CC2)ccc1C#N [HK4, 2-Cyano-N-(4-cyano-3-methyl-phenyl)-3-cyclopropyl-3-hydroxy-thioacrylamide]
- Caspase 3/7 activity provoked by palmitate 100 μM, HK4 pre-treatment ([1]; HK4 (10 μM) 1 h prior to palmitate 100 μM): 58.73±16.86%
- Caspase 3/7 activity provoked by palmitate 200 μM, HK4 pre-treatment ([1]; HK4 (10 μM) 1 h prior to palmitate 200 μM): 57.13±21.47%
- Effect on phosphorylation of the NF-κB subunit p65 compared to untreated cells (NF-κB subunit p65; HepG2, HK4 alone): no effect
- Ratio of phosphorylated NF-κB to non-phosphorylated NF-κB subunit p65, % of PA (NF-κB subunit p65; HepG2, pre-incubation with HK4 then palmitate acid, PA = 100%): 55.24±10.64%
- Caspase 7 protein expression vs. PA alone (Caspase 7): 60.91±4.18%
- Caspase 3/7 activity provoked by palmitate 200 μM, with HK4 (HepG2 cells; HepG2, HK4 100 nM + palmitate 200 μM): 47.32±19.56%
- Caspase 3/7 activity compared to untreated control cells (HepG2 cells; HepG2, HK4 alone (100 nM)): 21.60±2.52%
